Laboratory results as given in US5023084A, “Transdermal estrogen/progestin dosage unit, system and process” (Rutgers, The State University of New Jersey, priority 1988, dated 1991).

experiment: not given; details: oral; cited from earlier work

Structure (SMILES) | 17-beta-estradiol destroyed when taken orally
C[C@]12CC[C@@H]3c4ccc(O)cc4CC[C@H]3[C@@H]1CC[C@@H]2O [17-beta-estradiol] | over 90%

experiment: Permeation of estradiol and levonorgestrel across adult male human cadaver skin; assay type: in vitro ADME; details: not given
Procedure: Layer 2 contains levonorgestrel and layer 4 contains 17-beta-estradiol.
The primary and secondary enhancing agents are incorporated into levonorgestrel containing layer 2. The amounts of primary and secondary enhancing agents specified in Table 16 are used in making dosage units.
Permeation rates (mcg/sq. cm/hr±S.D.) are determined using the in vitro procedure of Y. W. Chien et al. identified in Example 1 using human cadaver skin.

Structure (SMILES) | Estradiol/Levonorgestrel Rate/Ratio | Permeation Rate, Estradiol | Permeation Rate, Levonorgestrel
CC1=C(/C=C/C(C)=C/C=C/C(C)=C/CO)C(C)(C)CCC1 [Retinol, retinol] | 1.5 (0.11) | 0.21 (0.040) mcg/sq. cm/hr | 0.141 (0.019) mcg/sq. cm/hr
CCCCCCCCCCCCCCCC(=O)OC/C=C(C)/C=C/C=C(C)/C=C/C1=C(C)CCCC1(C)C [Retinyl Palmitate, retinyl palmitate] | 1.0 (0.13) | 0.18 (0.030) mcg/sq. cm/hr | 0.176 (0.027) mcg/sq. cm/hr
Cc1c(C)c2c(c(C)c1O)CCC(C)(CCCC(C)CCCC(C)CCCC(C)C)O2 (racemic) [dl-alpha-Tocopherol] | 1.6 (0.10) | 0.20 (0.031) mcg/sq. cm/hr | 0.127 (0.021) mcg/sq. cm/hr
CC(=O)Oc1c(C)c(C)c2c(c1C)CCC(C)(CCCC(C)CCCC(C)CCCC(C)C)O2 (racemic) [dl-alpha-Tocopherol Acetate] | 1.0 (0.07) | 0.18 (0.024) mcg/sq. cm/hr | 0.182 (0.029) mcg/sq. cm/hr
CC1=C(/C=C/C(C)=C/C=C/C(C)=C/C(=O)O)C(C)(C)CCC1 [Retinoic Acid, retinoic acid] | 1.4 (0.16) | 0.22 (0.033) mcg/sq. cm/hr | 0.159 (0.024) mcg/sq. cm/hr
CCCCCCCCCCO [n-Decyl Alcohol, n-decyl alcohol] | 2.4 (0.21) |  | 

same assay, conditions: dosage unit with […] W/W n-decyl alcohol, with or without 5.0% secondary enhancer; S.D. in parentheses

Structure (SMILES) | Permeation Rate, Estradiol | Permeation Rate, Levonorgestrel
CCCCCCCCCCO [n-Decyl Alcohol, n-decyl alcohol] | 0.19 (0.031) mcg/sq. cm/hr | 0.080 (0.017) mcg/sq. cm/hr
